The record followed here is patent publication US20050250837A1, “Use of C-Raf inhibitors for the treatment of neurodegenerative diseases” (priority 2002, published 2005).

One assay deals with MEK1 (Homo sapiens, UniProt Q02750). Description: In vitro kinase assay, purified kinase (Upstate Kinase Profiling). Type of assay: biochemical. An excerpt:
(§1) (Lackey et al., 2000). […] A number of reports have implicated JNKs in the promotion of neuronal apoptosis both in vivo and in cell culture systems (Coffey et al., 2002). Although all three JNK proteins are expressed in neurons, the phosphorylation of c-jun is believed to be mediated by JNK2 or JNK3 (Bruckner et al., 2001; Bruckner and Estus, 2002; Coffey et al., 2002). […] In apoptotic neurons, JNK activation is mediated primarily by MKK7 (Eilers et al., 1998; Trotter et al., 2002).
(§2) In general, in vitro kinase assays were performed using purified kinase and synthetic substrates under standard conditions using the Kinase Profiling service of Upstate Biotechnology. Briefly, for each assay 5-10 mU of purified kinase was used. […] Kinase activity was quantified by measuring ^33P incorporation by spotting an aliquot on P30 filters, washing in 50 mM phosphoric acid and scintillation counting. The buffer composition for C-Raf, JNK1, JNK2, JNK3, MEK1, MKK6, MKK7 was 50 mM Tris pH7.5, 0.1 mM EGTA, 10 mM Mg acetate and [γ-^33P-ATP]. The peptide substrates used were as follows: For C-Raf, 0.66 mg/ml MBP; for cdks, 0.1 mg/ml histone H1; for JNKs, 3 uM ATF2; for MEK1, 1 uM MAPK2; for MKK6, 1 uM of SAPK2a and for MKK7, 2 uM JNK1α.

Another assay concerns the target GSK3β (Homo sapiens, UniProt P49841). The assay is described as above. It is filed as biochemical.
Description: as §1, §2

For another assay, the target named is MKK6 (Homo sapiens, UniProt P52564). The assay is described as above. It is filed as biochemical.
Description: as §1, §2

The target in the next assay is CDK5/p35 (Homo sapiens, UniProt Q00535). Described as above. It is filed as biochemical.
Description: as §1, §2

The target of another assay is CDK6/cyclinD3 (Homo sapiens, UniProt Q00534). The description is as above. Type of assay: biochemical.
Description: as §1, §2

In the next assay the target is JNK1 (Homo sapiens, UniProt P45983). The description is as above. It is filed as biochemical.
Description: as §1, §2

The target in a further assay is CDK1/cyclinB (Homo sapiens, UniProt P06493). Described as above. Type of assay: biochemical.
Description: as §1, §2

For another assay, the target named is MKK7 (Homo sapiens, UniProt O14733). The description is as above. Type of assay: biochemical.
Description: as §1, §2

Another assay has as its target JNK2 (Homo sapiens, UniProt P45984). Described as above. It is filed as biochemical.
Description: as §1, §2

Another assay concerns the target CDK2/cyclinA (Homo sapiens, UniProt P24941). Described as above. Type of assay: biochemical.
Description: as §1, §2

A further assay deals with CDK2/cyclinE (Homo sapiens, UniProt P24941). The assay is described as above. Type of assay: biochemical.
Description: as §1, §2

The next assay concerns JNK3. Described as above. Type of assay: biochemical. As to conditions: 1 uM GW5074, ATP 10 uM; percentage of control without GW5074, mean +/- SD.
Description: as §1, §2

A further assay relates to ERK 1/2. Briefly: ERK 1/2 phosphorylation in neuronal cultures, Western blot. Type of assay: cell-based, rat. As to conditions: LK plus GW5074, 1 or 3 hours. From the text: Activation of all three Raf proteins results in activation of MEK and ERK.
Survival of cerebellar granule neurons can be maintained by BDNF and this effect of BDNF is mediated by the Raf-MEK-ERK signaling pathway (Bonni et al., 1999). The Raf-MEK-ERK pathway is also involved in promoting survival of other neuronal and normeuronal cell types. A potent blocker of the Raf-MEK-ERK pathway is PD98059 (Alessi et al., 1995). In paradigms in which the Raf-MEK-ERK pathway mediates neuronal survival, such as BDNF-treated cerebellar granule neurons, the presence of […] blocks survival (Bonni et al., 1999). […] Lysates from the cultures were subjected to Western blotting using an antibody specific for phospho-ERK.
For whole-cell lysates, the culture medium was discarded, the neurons washed twice with ice-cold phosphate-buffered saline (PBS), and lysed in lysis buffer (1% Triton, 20 mM Tris-HCl (pH 7.5), 150 mM NaCl, 1 mM Na2EDTA, 1 mM EGTA, 2.5 mM sodium pyrophosphate, 1 mM beta-glycerophosphate, 1 mM Na3VO4, 1 μg/ml leupeptin and 1× protease inhibitor mixture). Protein concentrations were measured using a Bradford protein assay kit (Bio-Rad), and equivalent amounts of protein were mixed with 6×SDS-PAGE sample buffer. […] After staining with Ponceau S to verify uniformity of protein loads/transfer, the membranes were analyzed for immunoreactivity. […]
A general note: A western blot detects proteins with antibodies after separation by electrophoresis.

MKK6, sequence (P52564 whole entry, species assumed): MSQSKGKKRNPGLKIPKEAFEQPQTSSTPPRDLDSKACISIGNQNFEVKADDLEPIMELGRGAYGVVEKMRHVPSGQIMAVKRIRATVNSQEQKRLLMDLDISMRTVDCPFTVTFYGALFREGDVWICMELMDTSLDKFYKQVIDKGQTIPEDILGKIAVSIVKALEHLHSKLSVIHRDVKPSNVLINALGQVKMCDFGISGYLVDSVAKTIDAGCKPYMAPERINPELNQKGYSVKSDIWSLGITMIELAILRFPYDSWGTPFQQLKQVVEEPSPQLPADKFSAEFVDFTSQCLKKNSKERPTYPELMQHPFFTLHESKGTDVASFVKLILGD
MEK1, sequence (Q02750 whole entry, species assumed): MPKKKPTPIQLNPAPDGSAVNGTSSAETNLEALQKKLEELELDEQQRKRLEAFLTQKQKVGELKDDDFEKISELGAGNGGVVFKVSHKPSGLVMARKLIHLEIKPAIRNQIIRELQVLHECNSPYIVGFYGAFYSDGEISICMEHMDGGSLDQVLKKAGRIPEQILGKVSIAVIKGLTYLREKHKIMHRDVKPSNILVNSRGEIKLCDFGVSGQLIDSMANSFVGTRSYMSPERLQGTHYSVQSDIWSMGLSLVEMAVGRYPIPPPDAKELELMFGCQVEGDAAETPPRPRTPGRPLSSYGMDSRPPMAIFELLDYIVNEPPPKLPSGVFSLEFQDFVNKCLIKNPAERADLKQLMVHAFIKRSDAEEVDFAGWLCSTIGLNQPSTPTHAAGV
CDK1/cyclinB, sequence (P06493 whole entry, species assumed): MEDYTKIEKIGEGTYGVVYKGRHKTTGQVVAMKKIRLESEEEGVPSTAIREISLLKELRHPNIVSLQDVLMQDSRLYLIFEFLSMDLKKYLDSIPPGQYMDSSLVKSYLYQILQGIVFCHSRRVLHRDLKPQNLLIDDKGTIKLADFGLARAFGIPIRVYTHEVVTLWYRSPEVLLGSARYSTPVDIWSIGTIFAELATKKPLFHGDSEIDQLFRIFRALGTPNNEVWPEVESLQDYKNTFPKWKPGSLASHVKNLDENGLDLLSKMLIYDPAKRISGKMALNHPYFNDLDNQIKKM
CDK1/cyclinB, sequence (P14635 whole entry partner, species assumed): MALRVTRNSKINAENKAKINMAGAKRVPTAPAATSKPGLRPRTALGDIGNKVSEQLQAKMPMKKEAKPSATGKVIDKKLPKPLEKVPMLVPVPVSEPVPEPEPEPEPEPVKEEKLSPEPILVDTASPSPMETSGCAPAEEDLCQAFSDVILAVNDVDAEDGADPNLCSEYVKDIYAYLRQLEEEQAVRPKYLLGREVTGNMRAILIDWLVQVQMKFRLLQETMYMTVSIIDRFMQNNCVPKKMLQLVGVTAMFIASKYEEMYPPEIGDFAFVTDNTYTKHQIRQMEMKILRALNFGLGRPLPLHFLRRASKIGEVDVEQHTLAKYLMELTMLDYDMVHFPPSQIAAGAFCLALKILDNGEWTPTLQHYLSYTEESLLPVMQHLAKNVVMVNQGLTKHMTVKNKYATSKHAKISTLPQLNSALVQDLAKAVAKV
GSK3β, sequence (P49841 whole entry, species assumed): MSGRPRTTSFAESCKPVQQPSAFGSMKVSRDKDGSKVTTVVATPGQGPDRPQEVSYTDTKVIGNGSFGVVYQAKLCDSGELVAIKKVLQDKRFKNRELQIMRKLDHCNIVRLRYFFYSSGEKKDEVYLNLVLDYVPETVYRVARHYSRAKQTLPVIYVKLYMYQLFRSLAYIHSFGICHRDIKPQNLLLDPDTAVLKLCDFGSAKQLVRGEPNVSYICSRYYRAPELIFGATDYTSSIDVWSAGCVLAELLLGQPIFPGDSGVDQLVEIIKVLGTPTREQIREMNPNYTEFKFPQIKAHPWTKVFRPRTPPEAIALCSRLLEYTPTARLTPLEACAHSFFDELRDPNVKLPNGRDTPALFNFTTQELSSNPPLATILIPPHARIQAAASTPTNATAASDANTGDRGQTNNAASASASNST
JNK2, sequence (P45984 whole entry, species assumed): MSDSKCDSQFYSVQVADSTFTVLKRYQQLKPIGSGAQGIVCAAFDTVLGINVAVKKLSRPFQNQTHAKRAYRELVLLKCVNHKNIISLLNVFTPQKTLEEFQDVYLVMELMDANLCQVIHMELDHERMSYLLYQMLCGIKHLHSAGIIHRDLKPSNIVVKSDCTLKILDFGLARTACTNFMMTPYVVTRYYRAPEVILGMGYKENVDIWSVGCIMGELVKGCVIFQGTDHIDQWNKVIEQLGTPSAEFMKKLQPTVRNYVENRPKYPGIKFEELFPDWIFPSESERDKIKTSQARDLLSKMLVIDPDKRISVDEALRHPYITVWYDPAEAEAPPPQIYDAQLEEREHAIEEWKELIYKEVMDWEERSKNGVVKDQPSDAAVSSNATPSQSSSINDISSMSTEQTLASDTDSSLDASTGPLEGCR
CDK6/cyclinD3, sequence (Q00534 whole entry, species assumed): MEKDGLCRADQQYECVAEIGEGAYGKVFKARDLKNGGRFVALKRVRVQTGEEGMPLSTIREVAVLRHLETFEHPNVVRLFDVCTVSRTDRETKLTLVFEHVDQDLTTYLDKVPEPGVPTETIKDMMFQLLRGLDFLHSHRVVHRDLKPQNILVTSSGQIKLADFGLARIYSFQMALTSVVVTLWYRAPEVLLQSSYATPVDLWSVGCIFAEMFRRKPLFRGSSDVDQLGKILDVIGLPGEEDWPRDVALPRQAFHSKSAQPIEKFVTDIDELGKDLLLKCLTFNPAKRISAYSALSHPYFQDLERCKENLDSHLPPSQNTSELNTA
CDK6/cyclinD3, sequence (P30281 whole entry partner, species assumed): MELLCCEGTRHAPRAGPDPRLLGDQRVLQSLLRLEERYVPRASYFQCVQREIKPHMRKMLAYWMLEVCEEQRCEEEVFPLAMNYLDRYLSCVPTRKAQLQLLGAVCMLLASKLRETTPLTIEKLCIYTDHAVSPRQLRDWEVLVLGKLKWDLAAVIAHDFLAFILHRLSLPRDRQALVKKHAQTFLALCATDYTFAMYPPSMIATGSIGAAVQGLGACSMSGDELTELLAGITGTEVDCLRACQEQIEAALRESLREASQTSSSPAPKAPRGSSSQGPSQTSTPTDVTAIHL
JNK1, sequence (P45983 whole entry, species assumed): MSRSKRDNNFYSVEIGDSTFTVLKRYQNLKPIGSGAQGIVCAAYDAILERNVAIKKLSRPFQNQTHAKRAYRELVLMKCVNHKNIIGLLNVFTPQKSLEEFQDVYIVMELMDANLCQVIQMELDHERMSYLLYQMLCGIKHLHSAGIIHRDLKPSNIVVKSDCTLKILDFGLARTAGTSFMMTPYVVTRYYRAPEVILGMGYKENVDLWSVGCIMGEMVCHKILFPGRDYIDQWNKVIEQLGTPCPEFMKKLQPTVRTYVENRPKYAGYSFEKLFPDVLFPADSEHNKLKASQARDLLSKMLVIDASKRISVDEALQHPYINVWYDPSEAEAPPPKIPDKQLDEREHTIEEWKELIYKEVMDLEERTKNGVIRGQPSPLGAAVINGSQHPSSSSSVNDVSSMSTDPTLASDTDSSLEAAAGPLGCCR
CDK5/p35, sequence (Q00535 whole entry, species assumed): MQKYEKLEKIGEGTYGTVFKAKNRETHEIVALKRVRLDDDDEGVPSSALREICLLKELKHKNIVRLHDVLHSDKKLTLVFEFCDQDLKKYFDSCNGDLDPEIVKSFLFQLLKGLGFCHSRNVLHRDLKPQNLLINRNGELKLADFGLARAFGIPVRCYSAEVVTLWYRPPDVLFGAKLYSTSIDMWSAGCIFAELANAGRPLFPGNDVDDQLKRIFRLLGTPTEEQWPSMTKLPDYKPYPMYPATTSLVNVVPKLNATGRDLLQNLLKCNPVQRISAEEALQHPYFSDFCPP
CDK5/p35, sequence (Q15078 whole entry partner, species assumed): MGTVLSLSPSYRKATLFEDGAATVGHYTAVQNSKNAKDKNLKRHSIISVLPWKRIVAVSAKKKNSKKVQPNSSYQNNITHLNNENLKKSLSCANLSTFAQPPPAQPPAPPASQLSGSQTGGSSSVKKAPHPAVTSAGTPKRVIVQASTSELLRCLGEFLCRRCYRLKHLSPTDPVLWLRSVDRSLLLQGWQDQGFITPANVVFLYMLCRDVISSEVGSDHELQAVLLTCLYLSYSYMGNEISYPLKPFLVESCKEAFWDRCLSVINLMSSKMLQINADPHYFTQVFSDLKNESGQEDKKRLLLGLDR
MKK7, sequence (O14733 whole entry, species assumed): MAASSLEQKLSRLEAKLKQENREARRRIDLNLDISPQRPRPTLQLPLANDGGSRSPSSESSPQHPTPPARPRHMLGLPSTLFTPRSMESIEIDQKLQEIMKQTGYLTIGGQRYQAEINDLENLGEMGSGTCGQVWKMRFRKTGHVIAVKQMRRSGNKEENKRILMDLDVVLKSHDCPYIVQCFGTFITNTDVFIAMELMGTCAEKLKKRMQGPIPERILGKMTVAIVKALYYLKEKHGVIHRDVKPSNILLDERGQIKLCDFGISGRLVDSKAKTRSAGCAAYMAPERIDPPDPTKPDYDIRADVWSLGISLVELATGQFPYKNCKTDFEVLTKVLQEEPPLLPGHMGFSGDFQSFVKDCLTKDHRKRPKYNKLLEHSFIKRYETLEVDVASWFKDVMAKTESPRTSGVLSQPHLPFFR

Take `O=C1Nc2ccc(I)cc2C1=Cc1cc(Br)c(O)c(Br)c1` [GW5074, 5-Iodo-3-[(3,5-dibromo-4-hydroxyphenyl)methylene]-2-indolinone]: the activity at 1 µM on MEK1 worked out at 94 ± 4%; on GSK3β it was 81 ± 6%; at MKK6, 91 ± 4%; at CDK5/p35 it was 94 ± 2%; at CDK6/cyclinD3, 98 ± 1%; at JNK1, 94 ± 3%. For the same molecule, the activity at 1 µM on CDK1/cyclinB was determined as 90 ± 12%; on MKK7, 104 ± 8%; at JNK2, 91 ± 4%; at CDK2/cyclinA it was 99%; at CDK2/cyclinE, 100 ± 5%. Besides, the “% ACTIVITY JNK3” value with JNK3 is recorded as 89 ± 9%. Moreover, in the assay on ERK 1/2, the “phosphorylation of ERK 1/2” value is recorded as “increase in the phosphorylation of ERK 1/2”.
